# Results taken from PMC11420776 (RSC Advances, 2024).
# Columns and labels:
# UACC-257 (melanoma) = assay: NCI 60-cell one-dose antiproliferative screen; assay type: cell-based, human; conditions: one dose 10 μM
# UO-31 (renal cancer) = assay: NCI 60-cell one-dose antiproliferative screen; assay type: cell-based, human; conditions: one dose 10 μM
# DU-145 (prostate cancer) = assay: NCI 60-cell one-dose antiproliferative screen; assay type: cell-based, human; conditions: one dose 10 μM
# TK-10 (renal cancer) = assay: NCI 60-cell one-dose antiproliferative screen; assay type: cell-based, human; conditions: one dose 10 μM
# OVCAR-3 (ovarian cancer) = assay: NCI 60-cell one-dose antiproliferative screen; assay type: cell-based, human; conditions: one dose 10 μM
# HCT-15 (colon cancer) = assay: NCI 60-cell one-dose antiproliferative screen; assay type: cell-based, human; conditions: one dose 10 μM
# [1] = system: A549/ATCC (NSC lung cancer); assay: NCI 60-cell one-dose antiproliferative screen; assay type: cell-based, human; conditions: one dose 10 μM
# MCF7 (breast cancer) = assay: NCI 60-cell one-dose antiproliferative screen; assay type: cell-based, human; conditions: one dose 10 μM
# SW-620 (colon cancer) = assay: NCI 60-cell one-dose antiproliferative screen; assay type: cell-based, human; conditions: one dose 10 μM
# HT29 (colon cancer) = assay: NCI 60-cell one-dose antiproliferative screen; assay type: cell-based, human; conditions: one dose 10 μM
# SF-539 (CNS cancer) = assay: NCI 60-cell one-dose antiproliferative screen; assay type: cell-based, human; conditions: one dose 10 μM
# MDA-MB-435 (melanoma) = assay: NCI 60-cell one-dose antiproliferative screen; assay type: cell-based, human; conditions: one dose 10 μM
# [2] = system: NCI-H23 (NSC lung cancer); assay: NCI 60-cell one-dose antiproliferative screen; assay type: cell-based, human; conditions: one dose 10 μM
# HOP-62 (NSC lung cancer) = assay: NCI 60-cell one-dose antiproliferative screen; assay type: cell-based, human; conditions: one dose 10 μM
# SN12C (renal cancer) = assay: NCI 60-cell one-dose antiproliferative screen; assay type: cell-based, human; conditions: one dose 10 μM
# [3] = system: NCI-H226 (NSC lung cancer); assay: NCI 60-cell one-dose antiproliferative screen; assay type: cell-based, human; conditions: one dose 10 μM
# T-47D (breast cancer) = assay: NCI 60-cell one-dose antiproliferative screen; assay type: cell-based, human; conditions: one dose 10 μM
# [4] = system: NCI-H522 (NSC lung cancer); assay: NCI 60-cell one-dose antiproliferative screen; assay type: cell-based, human; conditions: one dose 10 μM
# UACC-62 (melanoma) = assay: NCI 60-cell one-dose antiproliferative screen; assay type: cell-based, human; conditions: one dose 10 μM
# COLO-205 (colon cancer) = assay: NCI 60-cell one-dose antiproliferative screen; assay type: cell-based, human; conditions: one dose 10 μM
# RPMI-8226 (leukemia) = assay: NCI 60-cell one-dose antiproliferative screen; assay type: cell-based, human; conditions: one dose 10 μM
# CAKI-1 (renal cancer) = assay: NCI 60-cell one-dose antiproliferative screen; assay type: cell-based, human; conditions: one dose 10 μM
# [5] = system: NCI/ADR-RES (ovarian cancer); assay: NCI 60-cell one-dose antiproliferative screen; assay type: cell-based, human; conditions: one dose 10 μM
# [6] = system: 60 human tumor cell lines; assay: NCI 60-cell one-dose antiproliferative screen, whole panel; assay type: cell-based; conditions: Homo sapiens, 60 cell, read-out: Mean inhibition (mean GI%)
# 786-0 (renal cancer) = assay: NCI 60-cell one-dose antiproliferative screen; assay type: cell-based, human; conditions: one dose 10 μM
# RXF 393 (renal cancer) = assay: NCI 60-cell one-dose antiproliferative screen; assay type: cell-based, human; conditions: one dose 10 μM
# OVCAR-5 (ovarian cancer) = assay: NCI 60-cell one-dose antiproliferative screen; assay type: cell-based, human; conditions: one dose 10 μM
# SK-MEL-28 (melanoma) = assay: NCI 60-cell one-dose antiproliferative screen; assay type: cell-based, human; conditions: one dose 10 μM
# [7] = system: NCI-H322M (NSC lung cancer); assay: NCI 60-cell one-dose antiproliferative screen; assay type: cell-based, human; conditions: one dose 10 μM
# HCT-116 (colon cancer) = assay: NCI 60-cell one-dose antiproliferative screen; assay type: cell-based, human; conditions: one dose 10 μM
# MALME-3M (melanoma) = assay: NCI 60-cell one-dose antiproliferative screen; assay type: cell-based, human; conditions: one dose 10 μM
# [8] = system: MDA-MB-468 (breast cancer); assay: NCI 60-cell one-dose antiproliferative screen; assay type: cell-based, human; conditions: one dose 10 μM
# M14 (melanoma) = assay: NCI 60-cell one-dose antiproliferative screen; assay type: cell-based, human; conditions: one dose 10 μM
# PC-3 (prostate cancer) = assay: NCI 60-cell one-dose antiproliferative screen; assay type: cell-based, human; conditions: one dose 10 μM
# OVCAR-4 (ovarian cancer) = assay: NCI 60-cell one-dose antiproliferative screen; assay type: cell-based, human; conditions: one dose 10 μM
# EKVX (NSC lung cancer) = assay: NCI 60-cell one-dose antiproliferative screen; assay type: cell-based, human; conditions: one dose 10 μM
# LOX IMIV (melanoma) = assay: NCI 60-cell one-dose antiproliferative screen; assay type: cell-based, human; conditions: one dose 10 μM
# A498 (renal cancer) = assay: NCI 60-cell one-dose antiproliferative screen; assay type: cell-based, human; conditions: one dose 10 μM
# U251 (CNS cancer) = assay: NCI 60-cell one-dose antiproliferative screen; assay type: cell-based, human; conditions: one dose 10 μM
# HCC-2998 (colon cancer) = assay: NCI 60-cell one-dose antiproliferative screen; assay type: cell-based, human; conditions: one dose 10 μM
# SK-MEL-2 (melanoma) = assay: NCI 60-cell one-dose antiproliferative screen; assay type: cell-based, human; conditions: one dose 10 μM
# SK-OV-3 (ovarian cancer) = assay: NCI 60-cell one-dose antiproliferative screen; assay type: cell-based, human; conditions: one dose 10 μM
# HS 578T (breast cancer) = assay: NCI 60-cell one-dose antiproliferative screen; assay type: cell-based, human; conditions: one dose 10 μM
# ACHN (renal cancer) = assay: NCI 60-cell one-dose antiproliferative screen; assay type: cell-based, human; conditions: one dose 10 μM
# SNB-19 (CNS cancer) = assay: NCI 60-cell one-dose antiproliferative screen; assay type: cell-based, human; conditions: one dose 10 μM
# SF-295 (CNS cancer) = assay: NCI 60-cell one-dose antiproliferative screen; assay type: cell-based, human; conditions: one dose 10 μM
# IGROV1 (ovarian cancer) = assay: NCI 60-cell one-dose antiproliferative screen; assay type: cell-based, human; conditions: one dose 10 μM
# SF-268 (CNS cancer) = assay: NCI 60-cell one-dose antiproliferative screen; assay type: cell-based, human; conditions: one dose 10 μM
# CCRF-CEM (leukemia) = assay: NCI 60-cell one-dose antiproliferative screen; assay type: cell-based, human; conditions: one dose 10 μM
# SNB-75 (CNS cancer) = assay: NCI 60-cell one-dose antiproliferative screen; assay type: cell-based, human; conditions: one dose 10 μM
# KM12 (colon cancer) = assay: NCI 60-cell one-dose antiproliferative screen; assay type: cell-based, human; conditions: one dose 10 μM
# [9] = system: NCI-H460 (NSC lung cancer); assay: NCI 60-cell one-dose antiproliferative screen; assay type: cell-based, human; conditions: one dose 10 μM
# [10] = system: MDA-MB-231/ATCC (breast cancer); assay: NCI 60-cell one-dose antiproliferative screen; assay type: cell-based, human; conditions: one dose 10 μM
# HOP-92 (NSC lung cancer) = assay: NCI 60-cell one-dose antiproliferative screen; assay type: cell-based, human; conditions: one dose 10 μM
# OVCAR-8 (ovarian cancer) = assay: NCI 60-cell one-dose antiproliferative screen; assay type: cell-based, human; conditions: one dose 10 μM
structure (smiles),measurement,setting,value
"COc1ccc(-c2nnc3ccc(NNC(C)=O)nn23)cc1 [Compound 6b, N′-(3-(4-methoxyphenyl)-[1,2,4]triazolo[4,3-b]pyridazin-6-yl)acetohydrazide]",GI%,UACC-257 (melanoma),— (— GI% is below 15%)
same,GI%,UO-31 (renal cancer),— (— GI% is below 15%)
same,GI%,DU-145 (prostate cancer),— (— GI% is below 15%)
same,GI%,TK-10 (renal cancer),— (— GI% is below 15%)
same,GI%,OVCAR-3 (ovarian cancer),— (— GI% is below 15%)
same,GI%,HCT-15 (colon cancer),— (— GI% is below 15%)
same,GI%,[1],— (— GI% is below 15%)
same,GI%,MCF7 (breast cancer),— (— GI% is below 15%)
same,GI%,SW-620 (colon cancer),— (— GI% is below 15%)
same,GI%,HT29 (colon cancer),— (— GI% is below 15%)
same,GI%,SF-539 (CNS cancer),— (— GI% is below 15%)
same,GI%,MDA-MB-435 (melanoma),— (— GI% is below 15%)
same,GI%,[2],— (— GI% is below 15%)
same,GI%,HOP-62 (NSC lung cancer),— (— GI% is below 15%)
same,GI%,SN12C (renal cancer),— (— GI% is below 15%)
same,GI%,[3],— (— GI% is below 15%)
same,GI%,T-47D (breast cancer),— (— GI% is below 15%)
same,GI%,[4],— (— GI% is below 15%)
same,GI%,UACC-62 (melanoma),— (— GI% is below 15%)
same,GI%,COLO-205 (colon cancer),— (— GI% is below 15%)
same,GI%,RPMI-8226 (leukemia),— (— GI% is below 15%)
same,GI%,CAKI-1 (renal cancer),— (— GI% is below 15%)
same,GI%,[5],— (— GI% is below 15%)
same,inhibition at 10 µM,[6],< 0%
same,GI%,786-0 (renal cancer),— (— GI% is below 15%)
same,GI%,RXF 393 (renal cancer),— (— GI% is below 15%)
same,GI%,OVCAR-5 (ovarian cancer),— (— GI% is below 15%)
same,GI%,SK-MEL-28 (melanoma),— (— GI% is below 15%)
same,GI%,[7],— (— GI% is below 15%)
same,GI%,HCT-116 (colon cancer),— (— GI% is below 15%)
same,GI%,MALME-3M (melanoma),— (— GI% is below 15%)
same,GI%,[8],— (— GI% is below 15%)
same,GI%,M14 (melanoma),— (— GI% is below 15%)
same,GI%,PC-3 (prostate cancer),— (— GI% is below 15%)
same,GI%,OVCAR-4 (ovarian cancer),— (— GI% is below 15%)
same,GI%,EKVX (NSC lung cancer),— (— GI% is below 15%)
same,GI%,LOX IMIV (melanoma),— (— GI% is below 15%)
same,GI%,A498 (renal cancer),— (— GI% is below 15%)
same,GI%,U251 (CNS cancer),— (— GI% is below 15%)
same,GI%,HCC-2998 (colon cancer),— (— GI% is below 15%)
same,GI%,SK-MEL-2 (melanoma),— (— GI% is below 15%)
same,GI%,SK-OV-3 (ovarian cancer),— (— GI% is below 15%)
same,GI%,HS 578T (breast cancer),— (— GI% is below 15%)
same,GI%,ACHN (renal cancer),— (— GI% is below 15%)
same,GI%,SNB-19 (CNS cancer),— (— GI% is below 15%)
same,GI%,SF-295 (CNS cancer),— (— GI% is below 15%)
same,GI%,IGROV1 (ovarian cancer),— (— GI% is below 15%)
same,GI%,SF-268 (CNS cancer),— (— GI% is below 15%)
same,GI%,CCRF-CEM (leukemia),— (— GI% is below 15%)
same,GI%,SNB-75 (CNS cancer),— (— GI% is below 15%)
same,GI%,KM12 (colon cancer),— (— GI% is below 15%)
same,GI%,[9],— (— GI% is below 15%)
same,GI%,[10],— (— GI% is below 15%)
same,GI%,HOP-92 (NSC lung cancer),— (— GI% is below 15%)
same,GI%,OVCAR-8 (ovarian cancer),— (— GI% is below 15%)
"COc1ccc(-c2nnc3ccc(NN=Cc4ccc(C)cc4)nn23)cc1 [Compound 4f, 3-(4-Methoxyphenyl)-6-(2-(4-methylbenzylidene)hydrazinyl)-[1,2,4]triazolo[4,3-b]pyridazine]",GI%,UACC-257 (melanoma),— (— GI% is below 15%)
same,GI%,UO-31 (renal cancer),66.50%
same,GI%,DU-145 (prostate cancer),60.93%
same,GI%,TK-10 (renal cancer),17.28%
same,GI%,OVCAR-3 (ovarian cancer),84.42%
same,GI%,HCT-15 (colon cancer),50.02%
same,GI%,[1],66.62%
same,GI%,MCF7 (breast cancer),42.84%
same,GI%,SW-620 (colon cancer),— (— GI% is below 15%)
same,GI%,HT29 (colon cancer),17.40%
same,GI%,SF-539 (CNS cancer),38.74%
same,GI%,MDA-MB-435 (melanoma),35.32%
same,GI%,[2],49.25%
same,GI%,HOP-62 (NSC lung cancer),29.57%
same,GI%,SN12C (renal cancer),23.07%
same,GI%,[3],45.38%
same,GI%,T-47D (breast cancer),24.01%
same,GI%,[4],— (— GI% is below 15%)
same,GI%,UACC-62 (melanoma),— (— GI% is below 15%)
same,GI%,COLO-205 (colon cancer),20.07%
same,GI%,RPMI-8226 (leukemia),— (— GI% is below 15%)
same,GI%,CAKI-1 (renal cancer),45.37%
same,GI%,[5],74.21%
same,inhibition at 10 µM,[6],34.8%
same,GI%,786-0 (renal cancer),43.09%
same,GI%,RXF 393 (renal cancer),37.84%
same,GI%,OVCAR-5 (ovarian cancer),— (— GI% is below 15%)
same,GI%,SK-MEL-28 (melanoma),— (— GI% is below 15%)
same,GI%,[7],— (— GI% is below 15%)
same,GI%,HCT-116 (colon cancer),21.17%
same,GI%,MALME-3M (melanoma),— (— GI% is below 15%)
same,GI%,[8],— (— GI% is below 15%)
same,GI%,M14 (melanoma),16.52%
same,GI%,PC-3 (prostate cancer),27.83%
same,GI%,OVCAR-4 (ovarian cancer),63.09%
same,GI%,EKVX (NSC lung cancer),31.76%
same,GI%,LOX IMIV (melanoma),76.27%
same,GI%,A498 (renal cancer),— (— GI% is below 15%)
same,GI%,U251 (CNS cancer),55.13%
same,GI%,HCC-2998 (colon cancer),20.85%
same,GI%,SK-MEL-2 (melanoma),— (— GI% is below 15%)
same,GI%,SK-OV-3 (ovarian cancer),20.16%
same,GI%,HS 578T (breast cancer),70.93%
same,GI%,ACHN (renal cancer),41.02%
same,GI%,SNB-19 (CNS cancer),— (— GI% is below 15%)
same,GI%,SF-295 (CNS cancer),43.09%
same,GI%,IGROV1 (ovarian cancer),— (— GI% is below 15%)
same,GI%,SF-268 (CNS cancer),40.91%
same,GI%,CCRF-CEM (leukemia),— (— GI% is below 15%)
same,GI%,KM12 (colon cancer),31.89%
same,GI%,[9],48.83%
same,GI%,[10],34.65%
same,GI%,HOP-92 (NSC lung cancer),81.11%
same,GI%,OVCAR-8 (ovarian cancer),58.61%
